We go through five compounds from ChEMBL document CHEMBL1135132, “Synthesis of more potent analogues of the acetylcholinesterase inhibitor, huperzine B” (Bioorg Med Chem Lett, 2002).

The term pKi denotes the negative decadic logarithm of the Ki, by convention in mol/L.

pKi: −log10 of the molar value.

For this assay, the target named is T1, Acetylcholinesterase (Bos taurus, UniProt P23795).
T1 sequence (P23795 whole entry): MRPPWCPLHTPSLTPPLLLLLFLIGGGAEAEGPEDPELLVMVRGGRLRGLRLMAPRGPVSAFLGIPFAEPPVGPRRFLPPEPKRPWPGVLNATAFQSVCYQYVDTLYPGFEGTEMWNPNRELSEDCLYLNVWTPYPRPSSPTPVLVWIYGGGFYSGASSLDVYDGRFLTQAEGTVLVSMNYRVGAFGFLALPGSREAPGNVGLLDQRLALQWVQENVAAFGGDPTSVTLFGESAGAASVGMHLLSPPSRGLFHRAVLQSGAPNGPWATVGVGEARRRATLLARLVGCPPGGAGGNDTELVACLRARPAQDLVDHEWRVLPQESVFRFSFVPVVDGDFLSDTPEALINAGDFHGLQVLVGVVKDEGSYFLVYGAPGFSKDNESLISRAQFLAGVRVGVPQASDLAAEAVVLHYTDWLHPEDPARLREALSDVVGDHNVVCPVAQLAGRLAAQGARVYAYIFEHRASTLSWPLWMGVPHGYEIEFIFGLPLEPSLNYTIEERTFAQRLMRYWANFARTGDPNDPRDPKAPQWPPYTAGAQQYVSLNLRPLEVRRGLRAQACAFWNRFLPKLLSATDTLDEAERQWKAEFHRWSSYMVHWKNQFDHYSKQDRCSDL
In words: Inhibitory constant against fetal bovine serum (FBS) acetylcholinesterase.
`CC1=CC2Cc3nc(O)ccc3C3(C1)NCC(C)=C23` (stereo not given) showed a pKi of 6.66.

As to `CC1=C[C@H]2Cc3[nH]c(=O)ccc3[C@]3(C1)NCCC[C@H]23` [HUPERZINE B], the pKi is 6.10.

On to `CCC1=C2C3C=C(C)CC2(NC1)c1ccc(O)nc1C3` (stereo not given), for which the pKi is 6.40.

With `CC1=CC2Cc3[nH]c(=O)ccc3C3(C1)NCCC(C)=C23` (stereo not given), the pKi is 5.69.

For `C/C=C1\[C@H]2C=C(C)C[C@]1(N)c1ccc(=O)[nH]c1C2` [HUPERZINE A], the pKi is 7.62.
